Assays:
Type in all cases: cell-based, human
MCF-7/ACC115 cells = assay: Adherens junction morphology upon fulvestrant in MCF-7/ACC115 cells; details: 10^−8 M, 48 h
Description: Next, the inventors tried to reproduce the effects obtained with the cells as deposited under DSM ACC3321 with other conventional MCF-7 cells, namely MCF-7/BOS provided by Prof. Ana Soto (Tufts University School of Medicine, Boston, Mass., USA) and the MCF-7/ACC115 clone obtained from the Leibniz-Institut DSMZ-Deutsche Sammlung von Mikroorganismen and Zellkulturen GmbH (Braunschweig, Germany).
Briefly, the MCF-7 cells were seeded and grown on glass coverslips in multi-well tissue culture plates (TPP) for 24 h to reach near 100% confluence and then treated for at least 48 h with 0.1% EtOH (solvent control) and the ERα antagonist fulvestrant (Sigma-Aldrich, CAS-No. 129453-61-8) at a concentration of 10^−8 M. During experiments, medium was exchanged on a daily basis. All experiments were performed at 37° C. with 5% CO2 in reduced-serum medium (phenol red-free DMEM (Gibco), 5% FBS (Biochrom, S 0615, LOT1353 W), 1% glutamine, 100 μg/ml streptomycin/100 U/ml penicillin (Biochrom)).

[1] = system: MCF-7/vBOS breast cancer cells; assay: Cell stiffness by atomic force microscopy (AFM) indentation
Description: (§1) FIG. 10 illustrates that inhibition of ERα signaling increases tissue stability by modulating cell mechanics and cell motility. (A) Quantification of cell stiffness (Apparent elastic (Young's) modulus) by atomic force microscopy (AFM) indentation measurements on cells treated with fulvestrant for 48 hours (ERepl.1=0.7141±0.1193 kPa; ERepl.2=0.651±0.1407 kPa; ERepl.3=0.5938±0.1564 kPa; mean±s.d.) compared to solvent control cells (, ERepl.1=0.4841±0.1194 kPa; ERepl.2=0.4088±0.1513 kPa; ERepl.3=0.4660±0.1189 kPa). Biological replicates, n=3; 50-60 cells per condition. Boxes, 25th, 50th (median), and 75th percentiles. Whiskers, 10th and 90th percentiles. Cross, mean for each group. Statistical testing, Mann-Whitney tests; **, p values<0.01. (B) Quantification of cell motility (velocity) by manual tracking of cells treated with fulvestrant for 48 hours (VRepl.1=0.0613±0.0176 μm/min; VRepl.2=0.0553±0.0157 μm/min; VRepl.3=0.051±0.014 μm/min; mean±s.d.) compared to solvent control cells (VRepl.1=0.113±0.0237 μm/min; VRepl.2=0.0757±0.023 μm/min; VRepl.3=0.0827±0.0174 μm/min). Biological replicates, n=3; 3 fields with 10 cells each per replicate and condition were imaged every 10 minutes over the course of 16 h. Boxes, 25th, 50th (median), and 75th percentiles. Whiskers, 10th and 90th percentiles. Cross, mean for each group. Statistical testing, Mann-Whitney tests; **, p values<0.01.
To test whether anti-estrogens also impact on the biomechanical properties of MCF-7/vBOS breast cancer cells, the inventors performed atomic force microscopy (AFM) indentation measurements on confluent monolayers. For this purpose, MCF7/vBos cells were grown and treated in 35 mm FluoroDish cell culture dishes (WPI) as described above. AFM indentation measurements were performed in CO2 Independent Medium (Gibco) at 37° C. using the NanoWizard 1 or 4 (JPK Instruments). Prior to measurements, tip-less Arrow-TLlsilicone cantilevers (Nanoworld) were equipped with polystyrene beads of 5 μm in diameter (microParticles GmbH, Germany) using epoxy glue, and calibrated using built-in procedures of the SPM software (JPK Instruments). The cantilever was positioned above the confluent epithelial monolayer and lowered with a speed of 10 μm/s. In each experiment, force-distance curves (force setpoint 2.5 nN) from 3-4 different positions per cell were collected. Force-distance curves were transformed into force-versus-tip sample separation curves according to Radmacher (Methods Cell Biol 2002; 68:67-90), and fitted with the Hertz/Sneddon model (27) for a spherical indenter using the JPK Data Processing software (JPK Instruments). […] Apparent elastic (Young's) moduli were determined using the Hertz model for a quadratic pyramid using the JPK Data Processing software (JPK Instruments).

[2] = system: MCF-7/vBOS breast cancer cells; assay: Cell motility by manual tracking in confluent monolayer after scratch
Description: as §1
Given that anti-estrogens increase adherens junction stability and cell rigidity, the inventors asked whether cell motility was likewise affected.

[3] = treated 48 hours, mean±s.d., replicate 1
[4] = treated 48 hours, mean±s.d., replicate 2
[5] = treated 48 hours, mean±s.d., replicate 3

C[C@]12CC[C@@H]3c4ccc(O)cc4C[C@@H](CCCCCCCCC[S+]([O-])CCCC(F)(F)C(F)(F)F)[C@H]3[C@@H]1CC[C@@H]2O (stereo partly shown) [Fulvestrant]
adherens junctions morphology in absence and presence of fulvestrant (MCF-7/ACC115 cells): same continuous adherens junctions morphology
cell rigidity ([1]; throughout the cell surface and at junctional regions, vs solvent control): significantly elevated
Apparent elastic (Young's) modulus, Repl.1 [1, 3]: 0.7141±0.1193 kPa
Apparent elastic (Young's) modulus, Repl.2 [1, 4]: 0.651±0.1407 kPa
Apparent elastic (Young's) modulus, Repl.3 [1, 5]: 0.5938±0.1564 kPa
cell motility (velocity), Repl.1 [2, 3]: 0.0613±0.0176 μm/min
cell motility (velocity), Repl.2 [2, 4]: 0.0553±0.0157 μm/min
cell motility (velocity), Repl.3 [2, 5]: 0.051±0.014 μm/min
velocity of cells ([2]; vs solvent control): significantly reduced
length of cell trajectories ([2]; vs solvent control, data not shown): significantly reduced
